According to article PMC12415691 (RSC Advances, 2025):

Biological target: T1, rabbit ALOX15 (Oryctolagus cuniculus, UniProt P12530)
T1 sequence (P12530 1-663): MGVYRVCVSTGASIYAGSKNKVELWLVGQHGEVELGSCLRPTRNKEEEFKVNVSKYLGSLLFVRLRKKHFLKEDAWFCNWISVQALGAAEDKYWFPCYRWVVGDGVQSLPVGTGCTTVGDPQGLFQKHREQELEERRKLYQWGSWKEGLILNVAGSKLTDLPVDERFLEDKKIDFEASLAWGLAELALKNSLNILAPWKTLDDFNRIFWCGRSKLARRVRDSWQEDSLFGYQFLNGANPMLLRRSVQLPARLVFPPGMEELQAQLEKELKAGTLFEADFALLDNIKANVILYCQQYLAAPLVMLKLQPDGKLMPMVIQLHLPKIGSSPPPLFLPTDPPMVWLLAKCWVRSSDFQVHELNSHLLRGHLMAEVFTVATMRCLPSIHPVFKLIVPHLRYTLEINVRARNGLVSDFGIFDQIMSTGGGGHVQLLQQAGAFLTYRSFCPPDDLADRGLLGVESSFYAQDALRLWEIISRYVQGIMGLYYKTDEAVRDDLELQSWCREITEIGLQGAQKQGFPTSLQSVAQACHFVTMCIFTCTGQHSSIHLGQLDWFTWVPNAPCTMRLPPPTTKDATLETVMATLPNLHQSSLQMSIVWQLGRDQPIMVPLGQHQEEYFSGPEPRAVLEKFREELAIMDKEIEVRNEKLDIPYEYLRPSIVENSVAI
Assay: Kinetic measurements of LA/AA oxygenation with inhibitor
Assay type: biochemical
Conditions: best fit of kinetic data

mode of inhibition of AA oxygenation (AA as substrate): uncompetitive mode of inhibition | mode of inhibition of LA oxygenation (LA as substrate): uncompetitive mode of inhibition
SMILES: CCCCCCCCOC(=O)NS(=O)(=O)Nc1ccc(-c2cc3ccccc3[nH]2)cc1OC [compound 3, Octyl (N-(4-(1H-indol-2-yl)-2-methoxyphenyl)sulfamoyl)-carbamate]
